Test results: patent publication US7914821B2, “Pharmaceutical composition for prevention and/or treatment of bone loss” (KO DA Pharmaceuticals Co., Ltd., priority 2008, dated 2011)

Columns and labels:
Format in all cases: cell-based, rat
EPK protein = assay: Effect of ERK inhibitor on induced phosphorylation of EPK protein; details: inhibitor for 30 minutes before imperatorin and bergapten; FIGS. 11A-11B
Protocol: Bone cells was cultured in 6-well plate and treated with 10 μM of imperatorin and bergapten for 1, 3, 6, 12, and 24 hrs, respectively. After treatment, the culture medium was replaced with a lysis buffer containing 50 mM HEPES (PH 7.4), 150 mM NaCl, 4 mM EDTA, 10 mM Na4P2O7, 100 mM NaF, 2 mM Na3VO4, 1% (v/v) Triton X-100, 0.25% (w/v) sodium deoxycholate, 50 mM 4-(2-aminoethyl)benzene sulfonylfluoride, 50 μg/ml leupeptin, and 20 μg/ml aprotinin, and then centrifuged at 13000 rpm for 15 minutes to obtain the protein pellets. 30 μg of proteins were dissolved in 5× Laemmli buffer, boiled at 95° C. for 5 minutes, and then subjected to SDS-PAGE gel (8%) electrophoresis. Proteins on the gel were then transferred to a PVDF membrane. The PVDF membrane was blocked in 4% BSA solution for 1 hour at room temperature. The blocked membrane was then incubated in PBST buffer (0.1% Tween-20) containing p-SMAD, p-ERK, or p38 primary antibody. Following incubation with primary antibody, the membrane was washed three times with PBST, and then incubated for 1 hr at room temperature with the secondary antibody, an anti-mouse or anti-goat IgG labeled with horseradish peroxidase. Following incubation with the secondary antibody, the membrane was washed three times with PBST, and detected by an […] chemiluminescence using an ECL blotting substrate according to the manufacturer's instructions. […]

Bone cells [1] = assay: Effect of p38 and ERK inhibitors on ALP activity in bone cells; details: 10 μM inhibitor with 10 μM imperatorin or bergapten, 48 hrs; FIG. 11C
Protocol: (§1) Rat primary osteoblast was isolated from the parietal bone of gestation day 18 embryos of Sprague-Dawley rats. After being slaughtered, the embryo rats were obtained from the uteruses of the rats, and calvarium was isolated from the embryo rats. Parietal bone was cut from the calvarium and digested by 0.1% collagenase for 20 minutes to release the bone cells from the bone tissue. The digestion step was repeated five times. The collected bone cells were cultured in α-MEM containing 1% penicillin-streptomycin and 10% FBS in a humidified atmosphere of 5 percent carbon dioxide. When cells were attached and confluence, they were sub-cultured, which was called “passage 2 (P2)”. The passage was for analogizing. 2 to 5 passage cells were used for the experiments.
Bone cells were cultured and treated with (1) 10 μM SB203580, (2) 10 μM PD98059, (3) 10 μM imperatori, (4) 10 μM bergapten, (5) 10 μM imperatorin+SB203580, (6) 10 μM bergapten+SB203580, (7) 10 μM imperatorin+PD98059 ? (8) 10 μM bergapten+PD98059 for 48 hrs. After treatment, the bone cells were lysed in 0.2% […] solution and centrifuged at 1500×g for 5 minutes. The supernatant was analyzed by an ALP kit such as described above to obtain the ALP activity. The ALP activity in the control group which was treated with 0.1% DMSO was defined as 100%. […]

p38 = assay: Effect of p38 inhibitor on induced phosphorylation of p38; details: inhibitor for 30 minutes before imperatorin and bergapten; FIGS. 11A-11B
Protocol: Bone cells was cultured in 6-well plate and treated with 10 μM of imperatorin and bergapten for 1, 3, 6, 12, and 24 hrs, respectively. […] 30 μg of proteins were dissolved in 5× Laemmli buffer, boiled at 95° C. for 5 minutes, and then subjected to SDS-PAGE gel (8%) electrophoresis. Proteins on the gel were then transferred to a PVDF membrane. The PVDF membrane was blocked in 4% BSA solution for 1 hour at room temperature. The blocked membrane was then incubated in PBST buffer (0.1% Tween-20) containing p-SMAD, p-ERK, or p38 primary antibody. Following incubation with primary antibody, the membrane was washed three times with PBST, and then incubated for 1 hr at room temperature with the secondary antibody, an anti-mouse or anti-goat IgG labeled with horseradish peroxidase. Following incubation with the secondary antibody, the membrane was washed three times with PBST, and detected by an enzyme-linked chemiluminescence using an ECL blotting substrate according to the manufacturer's instructions.
In the control group, a non-phosphorylation p38 and non-phosphorylation EPK proteins were subjected to SDS-PAGE gel electrophoresis.

Bone cells [2] = assay: ALP activity with imperatorin, bergapten and noggin; details: 1 μg/ml noggin with 10 μM imperatorin or 10 μM bergapten, 48 hrs; FIG. 9C
Protocol: as §1
Bone cells were treated with (1) 10 μM imperatorin, (2) 10 μM bergapten, (3) 10 μM imperatorin+noggin, (4) 10 μM bergapten+noggin, and (5) 1 μg/ml noggin for 48 his, respectively. After treatment, the bone cells were lysed in 0.2% […] solution, and then centrifuged at 1500×g for 5 minutes to obtain a supernatant. The supernatant was analyzed by ALP kit as described above to obtain the ALP activity. The ALP activity in the control group which was treated with 0.1% DMSO was defined as 100%. Referring to FIG. 9C, noggin suppressed the imperatorin or bergapten induced-ALP activity.

Row | Molecule | imperatorin and bergapten induced-phosphorylation (EPK protein) (EPK protein) | imperatorin and bergapten induced-ALP activity (Bone cells [1]) | imperatorin and bergapten induced-phosphorylation (p38) (p38) | imperatorin or bergapten induced-ALP activity (Bone cells [2])
1 | COc1cccc(-c2cc(=O)c3ccccc3o2)c1N [PD98059] | suppressed | suppressed |  | 
2 | C[S+]([O-])c1ccc(-c2nc(-c3ccncc3)c(-c3ccc(F)cc3)[nH]2)cc1 (centres unmarked) [SB203580] |  | suppressed | suppressed | 
3 | noggin: noggin, 1 μg/ml, suppressed the imperatorin or bergapten induced-ALP activity (protein, UniProt Q13253 28-232, looked up) Noggin: QHYLHIRPAPSDNLPLVDLIEHPDPIFDPKEKDLNETLLRSLLGGHYDPGFMATSPPEDRPGGGGGAAGGAEDLAELDQLLRQRPSGAMPSEIKGLEFSEGLAQGKKQRLSKKLRRKLQMWLWSQTFCPVLYAWNDLGSRFWPRYVKVGSCFSKRSCSVPEGMVCKPSKSVHLTVLRWRCQRRGGQRCGWIPIQYPIISECKCSC |  |  |  | suppressed
